The text below walks through data of US20230190705A1, “DRUG COMBINATION FOR TREATING DIABETES MELLITUS AND COMPLICATIONS THEREOF AND PHARMACEUTICAL COMPOSITION OF DRUG COMBINATION” (Chengdu Chipscreen Pharmaceutical Ltd., priority 2020, published 2023).

Molecules are shown by their SMILES.

In series [1] the test system is db/db male mice. Nature of the series: Blood lipids (serum TC and TG), chiglitazar sodium with empagliflozin (Example 3). It counts as in vivo. The note with it: oral once a day for 14 days, serum on Day 15, 10 mg/kg chiglitazar sodium, 3 mg/kg empagliflozin or both, FIG. 3. The procedure:
Experimental design: the effects on total cholesterol (TC) and triglyceride (TG) in mouse serum of single and combined medication were investigated, by oral administration of chiglitazar sodium, empagliflozin, or a combination thereof to diabetic mice.
Experimental procedure: 6-Week-old db/db male mice were orally administered once a day with 100 µL of vehicle (0.1% sodium carboxymethylcellulose), 10 mg/kg chiglitazar sodium, 3 mg/kg empagliflozin, or a combination of chiglitazar sodium and empagliflozin at the same doses simultaneously, respectively, according to body weight. Wild-type C57BLKS/Jnju mice were used as normal control (administered with vehicle). The period of administration was 14 days, and the animals were treated and dissected on Day 15. Whole blood was collected, serum was centrifuged and serum TC and TG were measured by biochemical analyzer.

The test system of series [2] is db/db male mice. Nature of the series: Body weight and fasting blood glucose, chiglitazar sodium with empagliflozin (Example 1). The class given is in vivo. The note with it: oral once a day for 14 days, 10 mg/kg chiglitazar sodium, 3 mg/kg empagliflozin or both, FIG. 1; for fasting blood glucose: 4-6 hours of fasting. The method, then: Experimental design: the effects on body weight and blood glucose of single and combined medication were investigated, by oral administration of chiglitazar sodium, empagliflozin, or a combination thereof to mice.
Experimental procedure: 6-Week-old db/db male mice were orally administered once a day with 100 µL of vehicle (0.1% sodium carboxymethylcellulose), 10 mg/kg chiglitazar sodium, 3 mg/kg empagliflozin, or a combination of chiglitazar sodium and empagliflozin at the same doses simultaneously, respectively, according to body weight. Wild-type C57BLKS/Jnju mice were used as normal control (administered with the vehicle). The period of administration was 14 days, and the animals were treated and dissected on Day 15. Starting from the administration, the mice were subjected to weighing and measurement of fasting blood glucose (4-6 hours of fasting) every 3 days.

The test system of series [3] is diabetic patients. The note with it: clinical studies; cited from earlier work.
The test system of series [4] is db/db male mice. In words: Blood lipids (serum TC and TG), chiglitazar sodium with dapagliflozin (Example 4). It counts as in vivo. The following applies: oral once a day for 14 days, serum on Day 15, 10 mg/kg chiglitazar sodium, 1.5 mg/kg dapagliflozin or both, FIG. 4. The procedure:
Experimental design: the effects on total cholesterol (TC) and triglyceride (TG) in mouse serum of single and combined medication were investigated, by oral administration of chiglitazar sodium, dapagliflozin, or a combination thereof to diabetic mice.
Wild-type C57BLKS/Jnju mice were used as normal control (administered with vehicle). The period of administration was 14 days, and the animals were treated and dissected on Day 15. Whole blood was collected, serum was centrifuged and serum TC and TG were measured by biochemical analyzer.

For series [5], the system named is db/db male mice. In words: Body weight and fasting blood glucose, chiglitazar sodium with dapagliflozin (Example 2). The class given is in vivo. The note with it: oral once a day for 14 days, 10 mg/kg chiglitazar sodium, 1.5 mg/kg dapagliflozin or both, FIG. 2. The procedure: Experimental design: the effects on body weight and blood glucose of single and combined medication were investigated, by oral administration of chiglitazar sodium, dapagliflozin, or a combination thereof to mice.
Wild-type C57BLKS/Jnju mice were used as normal control (administered with vehicle). The period of administration was 14 days, and the animals were treated and dissected on Day 15. Starting from the administration, the mice were subjected to weighing and measurement of fasting blood glucose (4-6 hours of fasting) every 3 days.

As for `OC[C@H]1O[C@@H](c2ccc(Cl)c(Cc3ccc(O[C@H]4CCOC4)cc3)c2)[C@H](O)[C@@H](O)[C@@H]1O` [empagliflozin, reference compound], in series [1], the “serum total cholesterol (TC)” value is “could reduce the serum total cholesterol and triglyceride levels to a certain extent”; the “serum triglyceride (TG)” value is “could reduce the serum total cholesterol and triglyceride levels to a certain extent”. For the same molecule, the fasting blood glucose result in series [2] is recorded as “could reduce blood glucose to a certain extent”.
As to `O=C(c1ccc(F)cc1)c1ccccc1NC(Cc1ccc(OCCn2c3ccccc3c3ccccc32)cc1)C(=O)O` (stereo not shown) [chiglitazar sodium], in series [3], the “efficacy on blood glucose and lipids in diabetic patients” value is “has efficacy in reducing blood glucose and improving lipids in diabetic patients”; the “weight gain effect in diabetic patients” value was “having certain weight gain effect”. In addition, in series [4], the “serum total cholesterol (TC)” value is “could reduce the serum total cholesterol and triglyceride levels to a certain extent”; the “serum triglyceride (TG)” value was “could reduce the serum total cholesterol and triglyceride levels to a certain extent”. Moreover, in series [1], the “serum total cholesterol (TC)” value was “could reduce the serum total cholesterol and triglyceride levels to a certain extent”; the “serum triglyceride (TG)” value was “could reduce the serum total cholesterol and triglyceride levels to a certain extent”. In addition, the fasting blood glucose result in series [5] (4-6 hours of fasting) is reported as “could reduce blood glucose to a certain extent”. Also, the body weight result in series [5] is on record as “weight gain”. Besides, in series [2], the fasting blood glucose entry was “could reduce blood glucose to a certain extent” and the body weight result is “weight gain”.
